Earlier results on three compounds are cited in publication PMC4704022, “Insights on FXR selective modulation. Speculation on bile acid chemical space in the discovery of potent and selective agonists” (Scientific Reports, 2016).

Usually pEC50 stands for the EC50 on a negative log10 scale, so that one unit is a factor of ten.

pEC50: −log10 of the molar value.

The test system of data set [1] is FXR. Details: method as in PMID 25247751. As to conditions: read-out: EC50, FXR transactivation; cited from earlier work.
The next data set relates to OSTα expression. Further details: method as in PMID 25247751. To be noted: compared with 6-ECDCA; cited from earlier work.
Data set [2] has as its system FXR. Further details: method as in PMID 10360171. As to conditions: cited from earlier work.

Regarding `C[C@H](CCCOS(=O)(=O)O)[C@H]1CCC2C3C(CC[C@@]21C)[C@@]1(C)CCCC[C@H]1C[C@H]3O` (stereo partly drawn) [compound 5, 7α-hydroxy-5β-cholan-24-sulfate], the pEC50 with FXR [1] is around 5.05. Moreover, in the data set on OSTα expression, the “Potency in inducing expression of OSTα (in words)” value was “comparable to that of 6-ECDCA”.
For `C[C@H](CCC(=O)O)[C@H]1CC[C@H]2[C@@H]3CC[C@@H]4C[C@H](O)CC[C@]4(C)[C@H]3C[C@H](O)[C@]12C` [deoxycholic acid], the “FXR ligand strength relative to CDCA (in words)” value in the data set on FXR [2] is “weaker natural ligands”.
As to `C[C@H](CCC(=O)O)[C@H]1CC[C@H]2[C@@H]3CC[C@@H]4C[C@H](O)CC[C@]4(C)[C@H]3CC[C@]12C` [lithocholic acid], the “FXR ligand strength relative to CDCA (in words)” value in the data set on FXR [2] is on record as “weaker natural ligands”.
